From ChEMBL document CHEMBL1201862, “PubChem BioAssay data set” (2004)
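Method: 48-hour compound exposure of cells in 96-well plates, five concentrations, linear interpolation of endpoints. GI50: concentration for 50% inhibition of growth.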 Active and inactive are the calls of the source. Rule as the data show it: active = GI50 up to about 1.1 µM and inactive = higher.

Tests used:
Experiment in all cases: NCI-60 cell line screen, 48 h
KM12 = test system: KM12
MCF7 = test system: MCF7
NCI-H226 = test system: NCI-H226
SR = test system: SR
COLO 205 = test system: COLO 205
M14 = test system: M14
UACC-257 = test system: UACC-257
NCI-H23 = test system: NCI-H23
TK-10 = test system: TK-10
LOX IMVI = test system: LOX IMVI
U-251 = test system: U-251
HCC 2998 = test system: HCC 2998
UO-31 = test system: UO-31
CAKI-1 = test system: CAKI-1
ACHN = test system: ACHN
SF-268 = test system: SF-268
OVCAR-4 = test system: OVCAR-4
SW-620 = test system: SW-620
OVCAR-8 = test system: OVCAR-8
RXF 393 = test system: RXF 393

SMILES | GI50 (KM12) | GI50 (MCF7) | GI50 (NCI-H226) | GI50 (SR) | GI50 (COLO 205) | GI50 (M14) | GI50 (UACC-257) | GI50 (NCI-H23) | GI50 (TK-10) | GI50 (LOX IMVI) | GI50 (U-251) | GI50 (HCC 2998) | GI50 (UO-31) | GI50 (CAKI-1) | GI50 (ACHN) | GI50 (SF-268) | GI50 (OVCAR-4) | GI50 (SW-620) | GI50 (OVCAR-8) | GI50 (RXF 393)
Cc1[nH]n(-c2ccccc2)c(=O)c1C(N(CCc1ccccc1)C1=NCC(C)S1)(C(F)(F)F)C(F)(F)F (stereo not drawn) | 13.1 µM (inactive) | 10.7 µM (inactive) | 6.28 µM (inactive) | 22.3 µM (inactive) | 6.27 µM (inactive) | 11.6 µM (inactive) | 16 µM (inactive) | 5.16 µM (inactive) | 16.3 µM (inactive) | 0.164 µM (active) | 7.41 µM (inactive) | 13.4 µM (inactive) | 10.4 µM (inactive) | 13.5 µM (inactive) | 16.2 µM (inactive) | 21.4 µM (inactive) | 10.8 µM (inactive) | 18.1 µM (inactive) |  | 
O=C1C2=Cc3ccccc3OC2(O)Oc2cc3ccccc3cc21 (stereo not drawn) | 41.4 µM (inactive) | > 100 µM (inactive) | 56.1 µM (inactive) | > 100 µM (inactive) | > 100 µM (inactive) | > 100 µM (inactive) | > 100 µM (inactive) | > 100 µM (inactive) | > 100 µM (inactive) | > 100 µM (inactive) | 50.9 µM (inactive) | 28.1 µM (inactive) |  | > 100 µM (inactive) | 87.9 µM (inactive) | 36.1 µM (inactive) | 49.7 µM (inactive) | > 100 µM (inactive) | > 100 µM (inactive) | 58.1 µM (inactive)
O=C(O)CN1CCNCCN(CP(=O)(O)O)CC1 | 5.47 µM (inactive) | 6.22 µM (inactive) | > 39.1 µM (inactive) | > 20.2 µM (inactive) | 2.84 µM (inactive) | 16.6 µM (inactive) | > 33.8 µM (inactive) | > 100 µM (inactive) | > 37.2 µM (inactive) |  | > 24.3 µM (inactive) | 3.28 µM (inactive) | 53.2 µM (inactive) | > 100 µM (inactive) | > 100 µM (inactive) | 22.3 µM (inactive) | 24.6 µM (inactive) | 4.49 µM (inactive) |  | 6.89 µM (inactive)
O=C1NC(NCc2ccc(F)cc2)=N/C1=C\c1ccccc1Cl | 18.1 µM (inactive) | 19.6 µM (inactive) | 18.1 µM (inactive) | 14.1 µM (inactive) | 17.4 µM (inactive) | 15.6 µM (inactive) | 24.9 µM (inactive) |  | 21.5 µM (inactive) | 14.7 µM (inactive) | 14.7 µM (inactive) | 26.3 µM (inactive) |  | 23.9 µM (inactive) | 20.7 µM (inactive) | 24.2 µM (inactive) | 23.9 µM (inactive) | 13.5 µM (inactive) | 14.4 µM (inactive) | 19.6 µM (inactive)
CS(=O)(=O)Nc1ccc2ccccc2c1 | > 100 µM (inactive) | > 100 µM (inactive) | 79.4 µM (inactive) | > 100 µM (inactive) | > 100 µM (inactive) | > 100 µM (inactive) | > 100 µM (inactive) | > 100 µM (inactive) | > 100 µM (inactive) | > 100 µM (inactive) | > 100 µM (inactive) | > 100 µM (inactive) | 21.1 µM (inactive) | > 100 µM (inactive) | > 100 µM (inactive) | > 100 µM (inactive) | > 100 µM (inactive) | > 100 µM (inactive) | > 100 µM (inactive) | 
N#Cc1nsnc1-c1nc(-c2nsnc2C#N)nc(-c2nsnc2C#N)n1 | 96.2 µM (inactive) | > 100 µM (inactive) | > 100 µM (inactive) | > 100 µM (inactive) | > 100 µM (inactive) |  | > 100 µM (inactive) | > 100 µM (inactive) | 71.4 µM (inactive) | > 100 µM (inactive) | > 100 µM (inactive) | > 100 µM (inactive) | > 100 µM (inactive) | > 100 µM (inactive) | > 100 µM (inactive) | > 100 µM (inactive) | > 100 µM (inactive) | > 100 µM (inactive) | > 100 µM (inactive) | 63.8 µM (inactive)
CCOC(=O)CCC(NC(=O)OCc1ccccc1)C(=O)NNC(=O)OC(C)(C)C (stereo not drawn) | > 100 µM (inactive) | > 100 µM (inactive) |  | > 100 µM (inactive) | > 100 µM (inactive) | > 100 µM (inactive) | > 100 µM (inactive) | > 100 µM (inactive) | > 100 µM (inactive) | > 100 µM (inactive) | > 100 µM (inactive) | > 100 µM (inactive) | > 100 µM (inactive) | > 100 µM (inactive) | > 100 µM (inactive) | > 100 µM (inactive) | > 100 µM (inactive) | > 100 µM (inactive) | > 100 µM (inactive) | > 100 µM (inactive)
CCOC(=O)N1CCNCCN(C(=O)OCC)CCNCC1 |  | > 100 µM (inactive) | > 100 µM (inactive) | > 100 µM (inactive) | > 100 µM (inactive) | > 100 µM (inactive) | > 100 µM (inactive) | > 100 µM (inactive) | > 100 µM (inactive) | > 100 µM (inactive) | > 100 µM (inactive) | > 100 µM (inactive) | > 100 µM (inactive) | > 100 µM (inactive) | > 100 µM (inactive) | > 100 µM (inactive) | > 100 µM (inactive) | > 100 µM (inactive) | > 100 µM (inactive) | > 100 µM (inactive)
COc1ccccc1NC1=NCC(C)S1 (stereo not drawn) | > 100 µM (inactive) | > 100 µM (inactive) | > 100 µM (inactive) | > 100 µM (inactive) | > 100 µM (inactive) | > 100 µM (inactive) | > 100 µM (inactive) | > 100 µM (inactive) | > 100 µM (inactive) | > 100 µM (inactive) | > 100 µM (inactive) | > 100 µM (inactive) | > 100 µM (inactive) | > 100 µM (inactive) | > 100 µM (inactive) | > 100 µM (inactive) |  | > 100 µM (inactive) | > 100 µM (inactive) | 33.8 µM (inactive)
O=c1[nH]/c(=C/c2ccc(OCc3ccccc3)cn2)c(=O)[nH]/c1=C/c1cccnc1 | 0.308 µM (active) | 0.378 µM (active) | 0.904 µM (active) | 0.5 µM (active) | 2.07 µM (inactive) | 0.344 µM (active) |  | 0.423 µM (active) | 2.18 µM (inactive) | 1.95 µM (inactive) | 0.581 µM (active) | 1.19 µM (inactive) |  | 0.479 µM (active) | 0.728 µM (active) | 0.542 µM (active) | 1.25 µM (inactive) | 0.42 µM (active) | 1.08 µM (active) | 0.574 µM (active)
C/C(=N\O)c1cccc(Nc2c3ccccc3nc3occc23)c1 | 6.11 µM (inactive) | 2.39 µM (inactive) | 14.1 µM (inactive) | 2.79 µM (inactive) | 5.09 µM (inactive) | 8.15 µM (inactive) | 7.03 µM (inactive) | 4.99 µM (inactive) | 10.1 µM (inactive) | 5.78 µM (inactive) | 13.6 µM (inactive) | 4.89 µM (inactive) | 7.18 µM (inactive) | 1.96 µM (inactive) | 8.07 µM (inactive) | 13.3 µM (inactive) | 1.8 µM (inactive) |  | 13.7 µM (inactive) | 
C=C1C(=O)OC2C1CC(O)/C(C)=C\CCC1(C)OC21 (stereo not drawn) | 32.9 µM (inactive) | 28.2 µM (inactive) |  | 20.2 µM (inactive) | 29.8 µM (inactive) | 23.1 µM (inactive) | 34 µM (inactive) | 31.3 µM (inactive) | 39.3 µM (inactive) | 27 µM (inactive) | 20.3 µM (inactive) | 35.1 µM (inactive) | 22.9 µM (inactive) |  | 39.5 µM (inactive) | 25.1 µM (inactive) | 25.6 µM (inactive) | 38.8 µM (inactive) | 33.8 µM (inactive) | 16.8 µM (inactive)
C/C(=N\NC(=O)c1ccc(Cl)cc1)c1nc2cccnc2[nH]1 | 24.8 µM (inactive) | 30.2 µM (inactive) |  | 18 µM (inactive) | 30.5 µM (inactive) | 36.2 µM (inactive) | 20 µM (inactive) | 33.8 µM (inactive) | 15.2 µM (inactive) | 12.2 µM (inactive) | 8.93 µM (inactive) | > 100 µM (inactive) | 26.7 µM (inactive) | 28.8 µM (inactive) | 15.7 µM (inactive) | 17.1 µM (inactive) | 18.2 µM (inactive) | 28.9 µM (inactive) | 15.5 µM (inactive) | 18.1 µM (inactive)
Clc1cc2nnn(C3CCCCO3)c2cc1Cl (stereo not drawn) | 86.3 µM (inactive) | > 100 µM (inactive) | 23.5 µM (inactive) | 51.6 µM (inactive) | > 100 µM (inactive) | > 100 µM (inactive) | 60.7 µM (inactive) | > 100 µM (inactive) | > 100 µM (inactive) |  | 80.7 µM (inactive) | > 100 µM (inactive) | 30.7 µM (inactive) | 30.4 µM (inactive) | > 100 µM (inactive) | 42.3 µM (inactive) | > 100 µM (inactive) |  | > 100 µM (inactive) | > 100 µM (inactive)
O=c1cc(-c2ccccc2F)[nH]c2cc3c(cc12)OCO3 | 0.0344 µM (active) | 0.0953 µM (active) | 0.184 µM (active) | 0.0147 µM (active) | 0.0512 µM (active) | 0.0528 µM (active) | 1.2 µM (inactive) | 0.35 µM (active) | 2.88 µM (inactive) | 0.119 µM (active) | 0.0995 µM (active) | 0.107 µM (active) | 0.711 µM (active) |  | 0.149 µM (active) | 0.504 µM (active) | > 24.6 µM (inactive) | 0.0356 µM (active) | 0.265 µM (active) | 0.0813 µM (active)
